These are literature values, as cited in patent publication US20180284402A1, “TOPICAL ANALGESIC PAIN RELIEF FORMULATIONS, MANUFACTURE AND METHODS OF USE THEREOF” (priority 2016, published 2018).

Like-named read-outs stand apart in the source and are kept apart here.

Data set [1] addresses T1, hTRPA1 (Homo sapiens, UniProt O75762).
Data set [2] deals with human TRPM8 (hTRPM8) (Homo sapiens, UniProt Q7Z2W7). The settings on record: Takaishi 2012.
The target in data set [3] is hTRPV1 (Homo sapiens, UniProt Q8NER1). The settings on record: Takaishi 2012.
Chain of hTRPV1 (Q8NER1 whole entry): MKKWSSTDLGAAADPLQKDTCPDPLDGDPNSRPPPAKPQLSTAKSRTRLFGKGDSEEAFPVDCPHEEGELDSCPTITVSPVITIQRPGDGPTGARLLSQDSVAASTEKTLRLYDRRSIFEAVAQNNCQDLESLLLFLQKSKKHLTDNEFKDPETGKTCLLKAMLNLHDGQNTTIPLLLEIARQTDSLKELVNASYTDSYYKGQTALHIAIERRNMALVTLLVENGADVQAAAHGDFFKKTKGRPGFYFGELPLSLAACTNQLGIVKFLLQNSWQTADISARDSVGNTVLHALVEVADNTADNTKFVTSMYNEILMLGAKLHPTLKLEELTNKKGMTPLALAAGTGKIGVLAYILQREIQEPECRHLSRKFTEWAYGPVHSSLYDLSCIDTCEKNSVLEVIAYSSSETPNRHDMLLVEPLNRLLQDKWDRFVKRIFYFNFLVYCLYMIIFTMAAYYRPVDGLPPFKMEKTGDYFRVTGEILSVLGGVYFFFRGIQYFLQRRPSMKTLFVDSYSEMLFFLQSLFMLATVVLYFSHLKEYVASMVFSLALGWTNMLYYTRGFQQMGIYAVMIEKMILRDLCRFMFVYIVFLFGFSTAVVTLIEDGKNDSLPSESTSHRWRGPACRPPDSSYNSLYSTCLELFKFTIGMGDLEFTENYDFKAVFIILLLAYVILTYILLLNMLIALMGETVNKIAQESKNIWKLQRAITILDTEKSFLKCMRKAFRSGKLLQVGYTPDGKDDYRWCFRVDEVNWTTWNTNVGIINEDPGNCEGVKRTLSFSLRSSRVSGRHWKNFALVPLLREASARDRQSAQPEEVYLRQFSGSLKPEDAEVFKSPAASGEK
In data set [4] the target is T2, hTRPV2 (Homo sapiens, UniProt Q9Y5S1).
T2 sequence (Q9Y5S1 1-764): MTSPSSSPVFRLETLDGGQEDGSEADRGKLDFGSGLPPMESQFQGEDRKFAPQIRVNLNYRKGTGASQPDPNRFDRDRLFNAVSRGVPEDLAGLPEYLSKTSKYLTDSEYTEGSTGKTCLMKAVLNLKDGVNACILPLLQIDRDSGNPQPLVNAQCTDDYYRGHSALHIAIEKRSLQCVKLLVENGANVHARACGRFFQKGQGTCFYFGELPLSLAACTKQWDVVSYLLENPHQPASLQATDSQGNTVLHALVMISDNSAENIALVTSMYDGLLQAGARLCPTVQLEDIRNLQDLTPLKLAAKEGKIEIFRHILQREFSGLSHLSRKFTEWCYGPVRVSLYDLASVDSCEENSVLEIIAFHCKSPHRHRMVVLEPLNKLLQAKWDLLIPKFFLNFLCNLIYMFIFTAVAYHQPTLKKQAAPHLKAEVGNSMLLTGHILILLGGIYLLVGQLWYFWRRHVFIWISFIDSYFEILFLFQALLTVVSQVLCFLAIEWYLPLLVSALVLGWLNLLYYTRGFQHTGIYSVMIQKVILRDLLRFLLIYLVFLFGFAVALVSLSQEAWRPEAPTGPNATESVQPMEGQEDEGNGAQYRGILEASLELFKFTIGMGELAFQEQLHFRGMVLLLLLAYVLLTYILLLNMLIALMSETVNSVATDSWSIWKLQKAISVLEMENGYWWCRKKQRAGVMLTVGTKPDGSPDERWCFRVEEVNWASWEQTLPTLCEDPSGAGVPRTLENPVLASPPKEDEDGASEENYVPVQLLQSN
The settings on record: Takaishi 2012.

Data set [5] addresses T1, hTRPA1. The following applies: compound at 1 mM; for inhibition of hTRPA1 activation by allyl isothiocyanate (mustard oil): allyl isothiocyanate at 10 uM; for inhibition of hTRPA1 activation by menthol: menthol at 1 mM.
Data set [6] relates to TRPV1. The settings on record: Morales-Lazaro 2016.
Data set [7] has as its system pain and itch responses. The following applies: mice.

T1 sequence (O75762 whole entry): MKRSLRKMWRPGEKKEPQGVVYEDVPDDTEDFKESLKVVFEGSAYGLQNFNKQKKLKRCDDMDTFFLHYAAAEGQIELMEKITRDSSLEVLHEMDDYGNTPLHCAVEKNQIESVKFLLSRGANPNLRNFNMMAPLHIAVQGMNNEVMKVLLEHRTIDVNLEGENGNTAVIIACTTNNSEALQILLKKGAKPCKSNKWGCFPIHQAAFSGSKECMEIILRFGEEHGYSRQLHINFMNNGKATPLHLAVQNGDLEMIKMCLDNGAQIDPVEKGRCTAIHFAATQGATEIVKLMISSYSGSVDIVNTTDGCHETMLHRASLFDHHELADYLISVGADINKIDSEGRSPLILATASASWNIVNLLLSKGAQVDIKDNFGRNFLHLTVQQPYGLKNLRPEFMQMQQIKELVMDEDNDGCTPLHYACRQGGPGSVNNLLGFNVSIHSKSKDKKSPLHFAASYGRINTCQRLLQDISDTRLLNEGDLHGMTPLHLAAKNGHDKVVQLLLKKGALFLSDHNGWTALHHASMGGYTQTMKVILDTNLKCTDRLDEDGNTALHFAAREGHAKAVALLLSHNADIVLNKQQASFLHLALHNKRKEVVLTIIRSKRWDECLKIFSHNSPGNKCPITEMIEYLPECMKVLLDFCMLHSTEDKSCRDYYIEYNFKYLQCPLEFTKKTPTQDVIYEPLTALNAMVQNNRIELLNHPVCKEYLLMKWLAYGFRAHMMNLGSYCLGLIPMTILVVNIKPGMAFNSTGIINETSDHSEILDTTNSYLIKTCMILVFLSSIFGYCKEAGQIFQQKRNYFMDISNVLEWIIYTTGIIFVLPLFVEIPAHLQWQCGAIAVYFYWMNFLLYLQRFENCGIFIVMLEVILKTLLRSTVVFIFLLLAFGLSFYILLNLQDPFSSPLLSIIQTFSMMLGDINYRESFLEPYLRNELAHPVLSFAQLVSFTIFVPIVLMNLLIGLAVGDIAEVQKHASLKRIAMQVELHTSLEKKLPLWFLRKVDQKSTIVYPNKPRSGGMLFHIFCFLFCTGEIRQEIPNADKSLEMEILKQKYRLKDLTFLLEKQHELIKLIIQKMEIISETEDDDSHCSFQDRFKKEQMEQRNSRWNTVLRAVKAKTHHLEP
Chain of human TRPM8 (hTRPM8) (Q7Z2W7 whole entry): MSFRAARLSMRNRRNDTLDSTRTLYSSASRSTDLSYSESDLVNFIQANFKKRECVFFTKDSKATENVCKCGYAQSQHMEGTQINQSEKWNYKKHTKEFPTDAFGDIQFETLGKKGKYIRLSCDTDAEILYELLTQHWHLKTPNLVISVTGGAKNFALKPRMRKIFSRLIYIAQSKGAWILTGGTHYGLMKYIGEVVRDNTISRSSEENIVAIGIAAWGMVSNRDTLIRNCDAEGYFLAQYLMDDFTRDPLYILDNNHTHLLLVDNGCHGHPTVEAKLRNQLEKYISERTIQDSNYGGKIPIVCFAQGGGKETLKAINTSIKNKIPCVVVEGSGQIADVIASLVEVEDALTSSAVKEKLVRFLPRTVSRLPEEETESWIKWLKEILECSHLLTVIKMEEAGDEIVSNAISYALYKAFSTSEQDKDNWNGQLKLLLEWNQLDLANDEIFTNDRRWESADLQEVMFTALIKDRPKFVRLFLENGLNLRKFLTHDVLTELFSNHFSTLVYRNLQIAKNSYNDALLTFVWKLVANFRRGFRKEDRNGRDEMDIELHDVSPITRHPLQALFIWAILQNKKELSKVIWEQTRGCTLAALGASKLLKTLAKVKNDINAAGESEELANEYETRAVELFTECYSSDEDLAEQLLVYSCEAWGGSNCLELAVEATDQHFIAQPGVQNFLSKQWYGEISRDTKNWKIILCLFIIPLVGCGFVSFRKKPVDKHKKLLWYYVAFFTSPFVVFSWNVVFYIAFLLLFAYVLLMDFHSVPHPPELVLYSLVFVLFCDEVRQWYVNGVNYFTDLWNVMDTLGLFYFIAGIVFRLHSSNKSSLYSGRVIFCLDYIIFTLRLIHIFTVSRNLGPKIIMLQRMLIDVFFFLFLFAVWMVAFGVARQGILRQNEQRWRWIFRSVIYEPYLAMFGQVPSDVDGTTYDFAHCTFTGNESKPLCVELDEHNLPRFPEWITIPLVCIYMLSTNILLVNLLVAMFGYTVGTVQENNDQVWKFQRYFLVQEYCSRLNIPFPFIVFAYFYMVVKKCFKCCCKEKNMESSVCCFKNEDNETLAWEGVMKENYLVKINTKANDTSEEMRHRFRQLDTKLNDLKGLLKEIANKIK

In the case of `CC12CCC(CC1)C(C)(C)O2` [1,8-cineole], the entries for the “activation of hTRPA1” value in data set [1] (Takaishi 2012) and in data set [1] (Takaishi 2014) were “without activating” and “did not activate”, respectively. Moreover, in data set [2], the “activation of human TRPM8 (hTRPM8)” value is on record as “activates”. Moreover, the “activation of hTRPV1” value in data set [3] is listed as “did not activate”. Further, the “activation of hTRPV2” value in data set [4] is on record as “did not activate”.
Take `O=C1CC2CC[C@H]1C2` [norcamphor]: the “activation of hTRPA1” value in data set [1] (Takaishi 2014) is given as “did not activate”.
`CC12CCC(C1)C(C)(C)C2O` (stereo not drawn) [fenchyl alcohol]: in data set [5], the “inhibition of hTRPA1 activation by allyl isothiocyanate (mustard oil)” value (“inhibition of hTRPA1 activation … (mustard oil)” below) is “completely inhibited” and the “inhibition of hTRPA1 activation by menthol” value (shortened to “inhibition … by menthol”) was “completely inhibited”. In addition, the “activation of hTRPA1” value in data set [1] (Takaishi 2014) is “did not activate”.
In the case of `CC1(C)C2CCC1(C)C(O)C2` (stereo not drawn) [borneol], in data set [5], the “inhibition of hTRPA1 activation … (mustard oil)” value was “completely inhibited” and the “inhibition … by menthol” value is “completely inhibited”. Besides, the “activation of hTRPA1” value in data set [1] (Takaishi 2014) is “did not activate”.
`CC12CCC(CC1=O)C2(C)C` (stereo not drawn) [camphor]: in data set [1] (Takaishi 2014), the “activation of hTRPA1” value is listed as “did not activate”.
For the molecule `CC1(C)[C@@H]2CC[C@@]1(C)[C@](C)(O)C2` [2-methylosoborneol], in data set [5], the “inhibition of hTRPA1 activation … (mustard oil)” value is listed as “completely inhibited” and the “inhibition … by menthol” value was “completely inhibited”. The “activation of hTRPA1” value in data set [1] (Takaishi 2014) is reported as “did not activate”.
On to `CCCCCCCC/C=C\CCCCCCCC(=O)O` [oleic acid], for which, in data set [6], the TRPV1 activity result is listed as “inhibited”. The “pain and itch responses” value in data set [7] is “inhibited”.
